Experimental findings from the supplement of paper PMC6125532 are described below.

The subject of assay [1] is Mycobacterium tuberculosis CRY-3; CRY-11. On the procedure:
(§1)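 Resazurin microtiter assay (REMA) MICs of anti-TB drugs against 19 EQA Mycobacterium tuberculosis strains (clinical or proficiency isolates plus H37Rv). Drugs were tested in doubling dilutions. Each value is the consensus of two measurements; where they disagreed the lower value was taken.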

Assay [2] concerns Mycobacterium tuberculosis CRY-7; CRY-18. The procedure: as §1
Assay [3] has as its system Mycobacterium tuberculosis CRY-4; CRY-30. The procedure:
as §1

Assay [4] relates to Mycobacterium tuberculosis CRY-19. On the procedure: as §1
In assay [5] the test system is Mycobacterium tuberculosis CRY-28. The procedure: as §1
The subject of assay [6] is Mycobacterium tuberculosis CRY-20. The procedure:
as §1

Assay [7] concerns Mycobacterium tuberculosis CRY-8; CRY-13. The procedure: as §1
For assay [8], the system named is Mycobacterium tuberculosis CRY-14. On the procedure: as §1
Assay [9] relates to Mycobacterium tuberculosis CRY-26. The procedure:
as §1

Assay [10] has as its system Mycobacterium tuberculosis CRY-15; CRY-21. The procedure:
as §1

Assay [11] has as its system Mycobacterium tuberculosis CRY-23. The procedure:
as §1

Assay [12] has as its system Mycobacterium tuberculosis CRY-6; CRY-29. The procedure:
as §1

The test system of assay [13] is Mycobacterium tuberculosis CRY-12; CRY-24. The procedure:
as §1

Assay [14] concerns Mycobacterium tuberculosis CRY-1; CRY-17. The procedure: as §1
Assay [15] relates to Mycobacterium tuberculosis CRY-16. The procedure: as §1
The test system of assay [16] is Mycobacterium tuberculosis CRY-9; CRY-22. On the procedure:
as §1

The test system of assay [17] is Mycobacterium tuberculosis CRY-5; CRY-10. The procedure:
as §1

The subject of assay [18] is Mycobacterium tuberculosis CRY-27. The procedure:
as §1

Assay [19] deals with Mycobacterium tuberculosis CRY-2; CRY-25. On the procedure: as §1

≈ marks a conversion by molar mass, not a printed value.

As to `COc1nc2ccc(Br)cc2cc1[C@@H](c1ccccc1)[C@@](O)(CCN(C)C)c1cccc2ccccc12` [Bedaquiline], the “MIC (REMA)” value in assay [1] came to 0.12 mg/L (≈ 0.216 µM); in assay [2] it was 0.06 mg/L (≈ 0.108 µM); in [3], 0.015 mg/L (≈ 0.027 µM); in assay [4] it was 0.015 mg/L (≈ 0.027 µM); in assay [5] it was 0.015 mg/L (≈ 0.027 µM); in [6], 0.03 mg/L (≈ 0.054 µM). Also, the “MIC (REMA)” value was 0.06 mg/L (≈ 0.108 µM) in assay [7]; not above 0.004 mg/L in assay [8]; 0.03 mg/L (≈ 0.054 µM) in assay [9]; 2 mg/L (≈ 3.6 µM) in assay [10]; 0.008 mg/L (≈ 0.0144 µM) in assay [11]; 0.03 mg/L (≈ 0.054 µM) in [12]. Moreover, the “MIC (REMA)” value in assay [13] was 0.5 mg/L (≈ 0.9 µM); in assay [14], 0.06 mg/L (≈ 0.108 µM); in assay [15], 0.03 mg/L (≈ 0.054 µM); in [16], 0.25 mg/L (≈ 0.45 µM); in assay [17] it was 0.015 mg/L (≈ 0.027 µM); in assay [18], 0.06 mg/L (≈ 0.108 µM). Also, the “MIC (REMA)” value in assay [19] was 0.06 mg/L (≈ 0.108 µM).

Take `C[C@]1(COc2ccc(N3CCC(Oc4ccc(OC(F)(F)F)cc4)CC3)cc2)Cn2cc([N+](=O)[O-])nc2O1` [Delamanid]: the “MIC (REMA)” value in assay [1] was 0.06 mg/L (≈ 0.112 µM); in assay [2] it was 0.06 mg/L (≈ 0.112 µM); in assay [3], 0.03 mg/L (≈ 0.0561 µM); in assay [4] it was 0.015 mg/L (≈ 0.0281 µM); in assay [5] it was 0.008 mg/L (≈ 0.015 µM); in assay [6], 0.015 mg/L (≈ 0.0281 µM). For the same compound, the “MIC (REMA)” value is 0.03 mg/L (≈ 0.0561 µM) in assay [7]; 0.015 mg/L (≈ 0.0281 µM) in assay [8]; 0.015 mg/L (≈ 0.0281 µM) in assay [9]; 0.125 mg/L (≈ 0.234 µM) in [10]; 0.03 mg/L (≈ 0.0561 µM) in assay [11]; 0.015 mg/L (≈ 0.0281 µM) in assay [12]. For the same compound, the “MIC (REMA)” value in assay [13] was 0.03 mg/L (≈ 0.0561 µM); in assay [14], more than 2 mg/L; in assay [15] it was 0.03 mg/L (≈ 0.0561 µM); in [16], 2 mg/L (≈ 3.74 µM); in assay [17] it was 0.125 mg/L (≈ 0.234 µM); in assay [18], 0.25 mg/L (≈ 0.468 µM). Also, the “MIC (REMA)” value in [19] came out at 0.03 mg/L (≈ 0.0561 µM).

Consider `NC[C@H]1O[C@H](O[C@H]2[C@H](O)[C@@H](O[C@H]3O[C@H](CO)[C@@H](O)[C@H](N)[C@H]3O)[C@H](N)C[C@@H]2N)[C@H](O)[C@@H](O)[C@@H]1O` [Kanamycin], for which the “MIC (REMA)” value in [1] was 2 mg/L (≈ 4.13 µM); in assay [2], more than 32 mg/L; in assay [3] it was 2 mg/L (≈ 4.13 µM); in assay [4] it was 0.5 mg/L (≈ 1.03 µM); in [5], 0.5 mg/L (≈ 1.03 µM); in assay [6], 1 mg/L (≈ 2.06 µM). Besides, the “MIC (REMA)” value in assay [7] was 2 mg/L (≈ 4.13 µM); in assay [8] it was more than 32 mg/L; in assay [9], 1 mg/L (≈ 2.06 µM); in assay [10] it was 2 mg/L (≈ 4.13 µM); in assay [11], 0.5 mg/L (≈ 1.03 µM); in assay [12] it was 1 mg/L (≈ 2.06 µM). The “MIC (REMA)” value in assay [13] is more than 32 mg/L; in assay [14], 1 mg/L (≈ 2.06 µM); in [15] it was 1 mg/L (≈ 2.06 µM); in [16] it was 1 mg/L (≈ 2.06 µM); in assay [17], 0.5 mg/L (≈ 1.03 µM); in assay [18], 2 mg/L (≈ 4.13 µM). Further, the “MIC (REMA)” value in [19] was 1 mg/L (≈ 2.06 µM).

In the case of `CC(=O)NC[C@H]1CN(c2ccc(N3CCOCC3)c(F)c2)C(=O)O1` [Linezolid], the “MIC (REMA)” value in assay [1] was determined as 0.5 mg/L (≈ 1.48 µM); in [2] it was 0.25 mg/L (≈ 0.741 µM); in assay [3], 0.5 mg/L (≈ 1.48 µM); in assay [4], 0.06 mg/L (≈ 0.178 µM); in [5], 0.125 mg/L (≈ 0.371 µM); in [6] it was 0.125 mg/L (≈ 0.371 µM). The “MIC (REMA)” value in [7] worked out at 0.25 mg/L (≈ 0.741 µM); in assay [8], 0.03 mg/L (≈ 0.0889 µM); in assay [9], 0.25 mg/L (≈ 0.741 µM); in assay [10], 0.25 mg/L (≈ 0.741 µM); in assay [11], 0.25 mg/L (≈ 0.741 µM); in assay [12], 0.125 mg/L (≈ 0.371 µM). Also, the “MIC (REMA)” value in assay [13], in assay [14], in [15], in [16], in [17] and in assay [18] was 0.25 mg/L (≈ 0.741 µM) throughout. The “MIC (REMA)” value in [19] is 0.25 mg/L (≈ 0.741 µM).

With `COc1c(N2C[C@@H]3CCCN[C@@H]3C2)c(F)cc2c(=O)c(C(=O)O)cn(C3CC3)c12` [Moxifloxacin], the “MIC (REMA)” value in assay [1] stood at 0.03 mg/L (≈ 0.0747 µM); in assay [2], 0.25 mg/L (≈ 0.623 µM); in [3] it was 0.06 mg/L (≈ 0.149 µM); in assay [4], 0.04 mg/L (≈ 0.0996 µM); in [5] it was 0.06 mg/L (≈ 0.149 µM); in [6], 0.03 mg/L (≈ 0.0747 µM). In addition, the “MIC (REMA)” value in assay [7] is 0.5 mg/L (≈ 1.25 µM); in [8], not above 0.008 mg/L; in assay [9] it was 0.03 mg/L (≈ 0.0747 µM); in assay [10], 0.06 mg/L (≈ 0.149 µM); in assay [11] it was 0.03 mg/L (≈ 0.0747 µM); in assay [12], 0.015 mg/L (≈ 0.0374 µM). The “MIC (REMA)” value in assay [13] worked out at 0.06 mg/L (≈ 0.149 µM); in [14], 0.03 mg/L (≈ 0.0747 µM); in assay [15], 0.03 mg/L (≈ 0.0747 µM); in assay [16] it was 0.015 mg/L (≈ 0.0374 µM); in assay [17] it was 8 mg/L (≈ 19.9 µM); in assay [18] it was 0.06 mg/L (≈ 0.149 µM). In addition, the “MIC (REMA)” value in assay [19] is 0.25 mg/L (≈ 0.623 µM).

As for `CO[C@H]1/C=C/O[C@@]2(C)Oc3c(C)c(O)c4c(c3C2=O)C2=NC3(CCN(CC(C)C)CC3)NC2=C(NC(=O)/C(C)=C\C=C\[C@H](C)[C@H](O)[C@@H](C)[C@@H](O)[C@@H](C)[C@H](OC(C)=O)[C@@H]1C)C4=O` [Rifabutin], the “MIC (REMA)” value in [1] was not above 0.004 mg/L; in assay [2] it was 2 mg/L (≈ 2.36 µM); in assay [3] it was not above 0.004 mg/L; in assay [4], not above 0.004 mg/L; in assay [5] it was 1 mg/L (≈ 1.18 µM); in assay [6], not above 0.004 mg/L. Further, the “MIC (REMA)” value in assay [7] was 2 mg/L (≈ 2.36 µM); in [8] it was 0.125 mg/L (≈ 0.148 µM); in assay [9], not above 0.004 mg/L; in assay [10], 0.008 mg/L (≈ 0.00944 µM); in [11], not above 0.004 mg/L; in assay [12], not above 0.004 mg/L. The “MIC (REMA)” value in assay [13] is not above 0.004 mg/L; in assay [14], more than 2 mg/L; in assay [15], not above 0.004 mg/L; in assay [16], not above 0.004 mg/L; in [17], 1 mg/L (≈ 1.18 µM); in [18], more than 2 mg/L. For the same compound, the “MIC (REMA)” value in assay [19] was not above 0.004 mg/L.
